Laboratory results as given in BindingDB's records for doi:10.7270/Q2DZ06QW (Columbia University Molecular Screening Center, 2008).

The compounds below were run against T1, Bifunctional epoxide hydrolase 2 (Homo sapiens, UniProt P34913) (assay: sEH inhibitor concentration-response potency, dose response, biochemical, human sEH, fluorescence, Infinite200 (AID 1026)).
T1 sequence (P34913 whole entry): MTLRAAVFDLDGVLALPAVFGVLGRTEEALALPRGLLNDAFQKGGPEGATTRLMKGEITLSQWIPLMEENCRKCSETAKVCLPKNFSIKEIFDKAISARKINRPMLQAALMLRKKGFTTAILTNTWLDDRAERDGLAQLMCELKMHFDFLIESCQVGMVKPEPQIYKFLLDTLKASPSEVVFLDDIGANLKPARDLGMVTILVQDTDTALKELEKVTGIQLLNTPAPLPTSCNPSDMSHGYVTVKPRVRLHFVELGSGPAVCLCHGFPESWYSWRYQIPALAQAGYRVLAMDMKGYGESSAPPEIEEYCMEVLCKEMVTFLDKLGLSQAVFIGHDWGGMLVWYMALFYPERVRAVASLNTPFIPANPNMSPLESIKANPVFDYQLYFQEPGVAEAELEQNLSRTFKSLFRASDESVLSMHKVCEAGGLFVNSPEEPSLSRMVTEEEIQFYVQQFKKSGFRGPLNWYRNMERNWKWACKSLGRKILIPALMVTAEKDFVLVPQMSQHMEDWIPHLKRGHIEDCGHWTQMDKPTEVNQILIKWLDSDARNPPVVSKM

SMILES	IC50 [µM]
COC(=O)c1ccc(S(=O)(=O)N2C3CCC2CC(NC(=O)NC2CCCCC2)C3)cc1 (stereo not drawn) [4-[3-(3-Cyclohexyl-ureido)-8-aza-bicyclo[3.2.1]octane-8-sulfonyl]-benzoic acid methyl ester]	0.0089
Cc1ccc(NC(=O)NC2CCCCC2)cc1Cl [1-(3-chloranyl-4-methyl-phenyl)-3-cyclohexyl-urea]	0.0705
CCOC(=O)c1sc(NC(=O)c2ccc(Cl)s2)cc1C [5-[(5-chlorothiophene-2-carbonyl)amino]-3-methyl-thiophene-2-carboxylic acid ethyl ester]	0.0828
CC(C)CN(C#N)c1nc(N2CCOCC2)nc(N2CCOCC2)n1 [(4,6-dimorpholin-4-yl-1,3,5-triazin-2-yl)-(2-methylpropyl)cyanamide]	> 10
CCOC(=O)c1sc(NC(=O)Nc2ccc(Cl)cc2)cc1C [5-[(4-chlorophenyl)carbamoylamino]-3-methyl-thiophene-2-carboxylic acid ethyl ester]	0.0631
c1ccc(CCN=C2NCCCS2)cc1 [5,6-dihydro-4H-1,3-thiazin-2-yl(phenethyl)amine]	> 10
COc1ccc(S(=O)(=O)N2C3CCC2CC(NC(=O)NC2CCCCC2)C3)cc1 (stereo not drawn) [1-Cyclohexyl-3-[8-(4-methoxy-benzenesulfonyl)-8-aza-bicyclo[3.2.1]oct-3-yl]-urea]	0.0394
Clc1ccc(CON=CNc2ncnc3sccc23)cc1 [N-[(4-chlorophenyl)methoxy]-N'-thieno[2,3-d]pyrimidin-4-yl-methanimidamide]	> 10
Cc1ccccc1NC(=S)NCCC(c1ccccc1)c1ccccc1 [1-(3,3-diphenylpropyl)-3-(2-methylphenyl)thiourea]	> 10
O=C1Nc2ccc(S(=O)(=O)N3CCOCC3)c3cccc1c23 [6-(4-morpholinylsulfonyl)-1H-benzo[cd]indol-2-one]	> 10
CCOC(=O)C(O)(c1ccc(NC(=O)NC2CCCCC2)cc1)C(F)(F)F (stereo not drawn) [2-[4-(cyclohexylcarbamoylamino)phenyl]-3,3,3-trifluoro-2-hydroxy-propionic acid ethyl ester]	0.121
CCN(CC)S(=O)(=O)c1ccc(N=C2NS(=O)(=O)c3ccccc32)cc1 [4-(1,1-Dioxo-1H-1lambda*6*-benzo[d]isothiazol-3-ylamino)-N,N-diethyl-benzenesulfonamide]	> 10
COc1ccc(Cn2ccc(=O)c(Cc3c(Cl)cccc3Cl)c2C)cc1 [3-(2,6-dichlorobenzyl)-1-(4-methoxybenzyl)-2-methyl-4(1H)-pyridinone]	> 10
CCOC(=O)CSc1ccc(-c2nc3cc(C)c(C)cc3[nH]2)cn1 [SMR000122535]	> 10
Cc1cc(Cl)c(OCCCNCc2ccccc2)c(Br)c1 [3-(2-bromanyl-6-chloranyl-4-methyl-phenoxy)-N-(phenylmethyl)propan-1-amine;ethanedioic acid]	> 10
CC(C)(C)c1ccc(S(=O)(=O)N2CCC(c3nc4cc(Cl)ccc4[nH]3)CC2)cc1 [2-[1-(4-tert-butylphenyl)sulfonylpiperidin-4-yl]-6-chloranyl-1H-benzimidazole]	> 10
Cc1cc(NS(=O)(=O)c2ccc(Nc3nc(-c4sc(NC(=O)c5ccccc5)nc4C)cs3)cc2)no1 [MLS000523248]	0.0198
O=C(CCCOc1ccc(Cl)cc1Cl)NN=CC1CCCCC1	0.0244
